Counter-ions that a name gives are not always drawn.
Key:
OE19 (esophageal cancer) = assay: Cell growth determination test of combined use, Combination Index, OE19; type: cell-based, human; settings: combined use with compound A
Description: (§1) The cell density of the cell suspension was measured by cell counter Sysmex CDA500, and the cell density was adjusted to 4×10^4 cell/mL using the aforementioned medium, which was dispensed to each well of a 96 well multi-well culture plate (Nunc) by 0.15 mL and cultured overnight at 37° C., 5% CO2. […] After culturing at 37° C., 5% CO2 for 5 days, the cells of each well were fixed, stained and subjected to colorimetry. The effect of the combined use was determined by the method of Chou T C, Talalay P Adv.
(§2) The effect of combined use was determined by the method of Chou T C, Talalay P Adv.

N87 (gastric cancer) = assay: Cell growth determination test of combined use, Combination Index, N87; type: cell-based, human; settings: combined use with compound A
Description: as §1, §2

[1] = system: Human breast cancer cell line BT-474; assay: Cell growth test of combined use, Combination Index by the method of Chou and Talalay, BT-474; type: cell-based; settings: for Combination Index at the time of inhibition of cell growth by 50%: combined use with compound A, BT-474
Description: as §1, §2

[2] = system: HER family genes (EGFR, HER2, HER3, HER4) in MCF-7 cell; assay: HER family gene expression (TaqMan PCR) in MCF-7; type: cell-based, human
Description: MCF-7 cell was plated on a 6 well plate at 8.6×10^4 cells/well. The next day, the cells were treated with compound A (1 μM), fulvestrant (1 μM) or compound A (1 μM)+fulvestrant (1 μM). After 120 hr, total RNA was extracted using an RNeasy mini kit (Qiagen). 1 μg of total RNA was subjected to a Reverse Transcriptase reaction using a high capacity cDNA archive kit (P/N 4322171, Applied Biosystems) to give cDNA. The obtained cDNA was diluted 50-fold with Nuclease Free water (Promega), and 5 μL thereof was used for PCR reaction. 2×TaqMan Universal PCR Master Mix (12.5 μL) and 20×Probe & Primer (TaqMan Gene Expression Assays, 1.25 μL) and Nuclease Free water (6.25 μL) were blended. PCR reaction and analysis were performed using GeneAmp 7700 (Applied Biosystems). The reaction conditions were 50° C.×2 min, 95° C.×10 min, followed by 95° C.×15 sec, 60° C.×1 min, which cycle was repeated 40 times. For data analysis, calculation was made with GAPDH as an internal control and according to ? Ct method

[3] = system: HER2 high expressing clinical gastric cancer cell line (4-1ST); assay: Tumor growth of 4-1ST tumor pieces transplanted subcutaneously in nude mouse, combined use; type: in vivo
Description: A tumor mass of 4-1ST (obtained from Central Institute for Experimental Animals), which was HER2 high expressing clinical gastric cancer cell line transplanted and passaged in vivo in nude mouse, was recovered from nude mouse, aseptically cut into 2 to 3 mm square pieces. The above-mentioned tumor piece was fixed on a trocar transplantation tool and transplanted subcutaneously into the abdomen of nude mouse. As a nude mouse for transplantation, BALB/cAJc l-nu/nu, female, 5-week-old mice were purchased from CLEA Japan, Inc. After 1 week of acclimation on receipt of the mice, the tumor piece was transplanted subcutaneously into the abdomen of 6-week-old mouse. The tumor volume was measured over time from 2 weeks after the transplantation and the mouse with a tumor volume of from 200 to 300 mm^3 was used for the test. Compound A was adjusted to a concentration of 10 mg/mL with 0.5% aqueous methylcellulose solution, and orally administered to mouse at a liquid amount of the above-mentioned compound A suspension of 10 mL/kg body weight. Compound A was administered twice a day in the morning and in the afternoon (administration interval was 7 hr or more) for 14 consecutive days. As for trastuzumab (Herceptin (trademark) (Genentech, Inc.) catalog No. NDC 50242-134-68), undiluted solution (21 mg/mL) was diluted to 1 mg/mL with saline, and intraperitoneally administered at a liquid amount of 10 mL/kg body weight. Trastuzumab was administered twice a week, totaling 4 times. The tumor volume was measured every 2 or 3 days, and the final tumor volume was measured on the next day of the completion of the 14 day administration and the effect of combined use was determined (FIG. 3). […] As for cetuximab (Erbitux (trademark)), undiluted solution (2 mg/mL) was intraperitoneally administered at a liquid amount of 10 mL/kg body weight. […] The tumor volume was measured every 2 or 3 days, and the final tumor volume was measured on the next day of the completion of the 14 day administration and the effect of combined use was determined (FIG. 4).

[4] = system: Human breast cancer cell line BT-474 (HER2 high expressing); assay: Tumor growth of BT-474 transplanted subcutaneously in nude mouse, combined use; type: in vivo; settings: compound A 10 mg/mL, 10 mL/kg orally twice a day, 14 days, 10 mL/kg intraperitoneally twice a week
Description: (§3) Human breast cancer cell line BT-474 (ATCC (American Type Culture Collection) catalog No. HTB-20, Lasfargues E Y, In Vitro 15:723-729 (1979)), which is a passage cultured HER2 high expressing cell, was treated with trypsin and suspended in RPMI-1640 medium (GibcoInvitrogen) containing 10% bovine fetus serum (GibcoInvitrogen).
as §3

[5] = system: HER2 high expressing cancer cells (BT-474, N87, Calu3, OE19); assay: Cell growth determination test of combined use, summary over the four cell lines; type: cell-based, human; settings: in vitro; summary of Table 1
Description: (§4) Human breast cancer cell line BT-474 (ATCC (American Type Culture Collection) catalog No. HTB-20, Lasfargues E Y, In Vitro 15:723-729 (1979)), which is a passage cultured HER2 high expressing cell, was treated with trypsin and suspended in RPMI-1640 medium (GibcoInvitrogen) containing 10% bovine fetus serum (GibcoInvitrogen). The cell density of the cell suspension was measured by cell counter Sysmex CDA500, and the cell density was adjusted to 4×10^4 cell/mL using the aforementioned medium, which was dispensed to each well of a 96 well multi-well culture plate (Nunc) by 0.15 mL and cultured overnight at 37° C., 5% CO2. Thereto was added a medium containing compound A 40-200 nmol/L at a given concentration, a medium containing trastuzumab (Herceptin (trademark) (Genentech, Inc.) catalog No. NDC 50242-134-68, 79-400 ng/mL) at a given concentration, or a medium containing compound A 40-200 nmol/L and trastuzumab 79-400 ng/mL at a given concentration. […] The effect of the combined use was determined by the method of Chou T C, Talalay P Adv. […]
(§5) HER2 high expressing human cancer cell lines, BT-474 (breast cancer), N87 (gastric cancer), Calu3 (lung cancer) and OE19 (esophageal cancer), were purchased from ATCC and used for the experiments. […] The effect of combined use was determined by the method of Chou T C, Talalay P Adv.

[6] = system: Human breast cancer cell line BT-474; assay: Cell growth inhibitory assay, SRB staining method, BT-474; type: cell-based; settings: in vitro; serially diluted; 5 days; BT-474 (FIG. 7)
Description: (§6) Human breast cancer cell line BT-474 was treated with trypsin and suspended in RPMI 1640 medium (Invitrogen) containing 10% bovine fetus serum (Invitrogen). BT-474 cell was plated on a 96 well plate at 6000 cells/100 μL/well. The next day, fulvestrant alone, compound A alone or a mixture of fulvestrant and compound A was serially diluted and added. After addition of the compound, the mixture was stood in a CO2 incubator for 5 days. 50 μL of 25% glutaraldehyde solution (Wako) was added to 200 μL of medium and the mixture was left standing at room temperature for 15 min. The plate was washed with PBS once, 200 μL of PBS was added, 25 μL of 50% trichloroacetic acid was added, and the mixture was left standing at 4° C. for 1 hr or longer. The plate was washed 5 times with tap water, redundant water was removed by slamming the plate against Kimtowel. 50 μL of 0.4% (w/v) Sulforhodamine B (SRB, Sigma)-containing 1% (v/v) acetic acid solution was added to each well and, 15 min later, the plate was washed 3 times with 1% acetic acid solution (v/v). The plate was thoroughly dried, 10 mM Tris solution was added, and the mixture was stirred well with a plate shaker, and the absorbance at 550 nm was measured (Bio-Rad, Benchmark Plus). In calculation, a control free of a drug was 100% (FIG. 7).

[7] = system: Human breast cancer cell line MCF-7; assay: Cell growth inhibitory assay, SRB staining method, MCF-7; type: cell-based; settings: in vitro; serially diluted; 4 days; MCF-7 (FIG. 8)
Description: Human breast cancer cell line MCF-7 cell was plated on a 96 well plate at 3000 cells/100 μL/well. The next day, fulvestrant alone, compound A alone or a mixture of fulvestrant and compound A was serially diluted and added.
as §6, with “After” for “Human breast cancer cell line BT-474 was treated with trypsin and suspended in RPMI 1640 medium (Invitrogen) containing 10% bovine fetus serum (Invitrogen). BT-474 cell was plated on a 96 well plate at 6000 cells/100 μL/well. The next day, fulvestrant alone, compound A alone or a mixture of fulvestrant and compound A was serially diluted and added. After”, “for 4” for “for 5”, “(FIG. 8).” for “(FIG. 7).”

Calu3 (lung cancer) = assay: Cell growth determination test of combined use, Combination Index, Calu3; type: cell-based, human; settings: combined use with compound A; Calu-3
Description: as §4, §5

CCc1c2c(nc3ccc(OC(=O)N4CCC(N5CCCCC5)CC4)cc13)-c1cc3c(c(=O)n1C2)COC(=O)[C@]3(O)CC [irinotecan hydrochloride]
Combination Index at the time of inhibition of cell growth by 50% (OE19 (esophageal cancer)): 0.83
Combination Index at the time of inhibition of cell growth by 50% (N87 (gastric cancer)): 1.02

O=c1[nH]cc(F)c(=O)[nH]1 [Compound 5FU, 5FU]
Combination Index at the time of inhibition of cell growth by 50% (OE19 (esophageal cancer)): 1.43
Combination Index at the time of inhibition of cell growth by 50% (N87 (gastric cancer)): 0.95

CC(=O)O[C@@]12CO[C@@H]1C[C@H](O)[C@@]1(C)C(=O)[C@H](O)C3=C(C)[C@@H](OC(=O)[C@H](O)[C@@H](NC(=O)OC(C)(C)C)c4ccccc4)C[C@@](O)([C@@H](OC(=O)c4ccccc4)[C@H]21)C3(C)C [docetaxel]
Combination Index at the time of inhibition of cell growth by 50% [1]: 1.10
Combination Index at the time of inhibition of cell growth by 50% (OE19 (esophageal cancer)): 0.94
Combination Index at the time of inhibition of cell growth by 50% (N87 (gastric cancer)): 0.57

CC(C)(O)CC(=O)NCCn1ccc2ncnc(Nc3ccc(Oc4cccc(C(F)(F)F)c4)c(Cl)c3)c21 [Compound A, N-{2-[4-({3-chloro-4-[3-(trifluoromethyl)phenoxy]phenyl}amino)-5H-pyrrolo[3,2-d]pyrimidin-5-yl]ethyl}-3-hydroxy-3-methylbutanamide]
Action on HER signal ([2]; compound A 1 μM alone or + fulvestrant 1 μM, 120 hr (FIG. 9)): HER signal blocking action
Effect of combined use of compound A and trastuzumab on cell growth ([1]; in vitro, compound A 40-200 nmol/L + trastuzumab 79-400 ng/mL, 5 days, Combination Index vs Fraction affected (FIG. 1)): synergistic effect
Effect of combined use of compound A and erlotinib on tumor volume ([3]; compound A 10 mg/mL and erlotinib 2 mg/mL, each 10 mL/kg orally twice a day, 14 days (FIG. 5)): synergistic effect
Effect of combined use of compound A and cetuximab on tumor volume ([3]; compound A 10 mg/mL, 10 mL/kg orally twice a day, 14 days, cetuximab 2 mg/mL, 10 mL/kg intraperitoneally twice a week, 4 times (FIG. 4)): synergistic effect
Effect of combined use of compound A and trastuzumab on tumor volume ([3]; compound A 10 mg/mL, 10 mL/kg orally twice a day, 14 days, trastuzumab 1 mg/mL, 10 mL/kg intraperitoneally twice a week, 4 times (FIG. 3)): synergistic effect
Effect of combined use of compound A and paclitaxel on tumor volume, compared to each agent alone ([4]; paclitaxel 3 mg/mL, 4 times (FIG. 6)): stronger action
Effect of combined use of compound A and trastuzumab on tumor volume ([4]; trastuzumab 1 mg/mL, 4 times, two-way analysis of variance (FIG. 2)): synergistic effect
Effect of combined use of compound A and chemotherapeutic agents on cell growth [5]: additive effect
Cell growth inhibition by combined use of compound A and fulvestrant, compared to each alone [6]: stronger cell growth inhibitory action
Cell growth inhibition by combined use of compound A and fulvestrant, compared to each alone [7]: stronger cell growth inhibitory action

COc1cccc2c1C(=O)c1c(O)c3c(c(O)c1C2=O)C[C@@](O)(C(=O)CO)C[C@@H]3O[C@H]1C[C@H](N)[C@H](O)[C@H](C)O1 [doxorubicin hydrochloride]
Combination Index at the time of inhibition of cell growth by 50% [1]: 1.65
Combination Index at the time of inhibition of cell growth by 50% (OE19 (esophageal cancer)): 0.96
Combination Index at the time of inhibition of cell growth by 50% (Calu3 (lung cancer)): 1.39

C[C@]12CC[C@@H]3c4ccc(O)cc4C[C@@H](CCCCCCCCC[S+]([O-])CCCC(F)(F)C(F)(F)F)[C@H]3[C@@H]1CC[C@@H]2O (stereo partly drawn) [fulvestrant]
HER family gene expression (EGFR, HER2, HER3, HER4), control group = 1 ([2]; 1 μM, 120 hr, GAPDH as internal control (FIG. 9)): increase

— patent US20100008912A1, “COMBINATION DRUG” (TAKEDA PHARMACEUTICAL COMPANY LIMITED, priority 2006, published 2010)
